From US7202247B2, “1,3-bis-(substituted-phenyl)-2-propyn-1-ones and their use to treat disorders” (AtheroGenics, Inc., priority 2001, dated 2007)

Assays:
VCAM-1 = assay: In vitro VCAM-1 assay: TNF-α stimulated endothelial cells, cell-surface ELISA; format: cell-based; settings: primary human aortic (HAEC) or pulmonary (HPAEC) endothelial cells, TNF-α 1 ng/ml, approximately 16 hours exposure
Method: Cell Culture and compound dosing: Cultured primary human aortic (HAEC) or pulmonary (HPAEC) endothelial cells were obtained from Clonetics, Inc., and were used below passage 9. Cells were seeded in 96 well plates such that they would reach 90–95% confluency by the following day. On the following day the cells were stimulated with TNF-α (1 ng/ml) in the presence or absence of compounds dissolved in DMSO such that the final concentration of DMSO is 0.25% or less. To establish a dose curve for each compound, four concentrations in 2- to 5-fold increments were used. Cells were exposed to TNF-α and compounds for approximately 16 hours. The next day the cells were examined under microscope to score for visual signs of toxicity or cell stress.
Following 16 hr exposure to TNF-α and compound the media was discarded and the cells were washed once with Hanks Balanced Salt Solution (HBSS)/Phosphate buffered saline (PBS) (1:1). Primary antibodies against VCAM-1 (0.25 μg/ml in HBSS/PBS+5% FBS) were added and incubated for 30–60 minutes at 37° C. Cells were washed with HBSS/PBS three times, and secondary antibody Horse Radish Peroxidase (HRP)-conjugated goat anti-mouse IgG (1:500 in HBSS/PBS+5% FBS) were added and incubated for 30 minutes at 37° C. Cells were washed with HBSS/PBS four time and TMB substrate were added and incubated at room temperature in the dark until there was adequate development of blue color. The length of time of incubation was typically 5–15 minutes. 2N sulfuric acid was added to stop the color development and the data was collected by reading the absorbance on a BioRad ELISA plate reader at OD 450 nm. The results are expressed as IC50 values (the concentration (micromolar) of compound required to inhibit 50% of the maximal response of the control sample stimulated by TNF-α only).

Row | SMILES | IC50 (VCAM-1) | melting point
1 | COc1cc(OC)c(-c2cccs2)cc1C#CC(=O)c1cc(OC)c(OCC(=O)O)c(OC)c1 [Example 4, {4-[3-(2,4-Dimethoxy-5-thiophen-2-yl-phenyl)-propynoyl]-2,6-dimethoxy-phenoxy}-acetic acid] | < 5 µM | 
2 | COc1cc(OC)c(-c2cccs2)cc1C#CC(=O)c1ccc(C(=O)O)cc1 [Example 2, 4-[3-{2,4-Dimethoxy-5-(thiophen-2-yl)-phenyl}propynoyl]-benzoic Acid] | < 5 µM | 220 °C (dec.)
3 | COC(=O)c1ccc(C(=O)C#Cc2cc(-c3cccs3)c(OC)cc2OC)cc1 [Example 1, 4-[3-(2,4-dimethoxy-5-thiophen-2-yl-phenyl)-propynoyl]-benzoic acid methyl ester] |  | 198 to 200 °C
4 | COC(=O)COc1c(OC)cc(C(=O)C#Cc2cc(-c3cccs3)c(OC)cc2OC)cc1OC [Example 3, {4-[3-(2,4-Dimethoxy-5-thiophen-2-yl-phenyl)-propynoyl]-2,6-dimethoxy-phenoxy}-acetic acid methyl ester] | < 5 µM | 
